Consider 16 compounds from patent publication US20250228239A1, “MOLECULES HAVING PESTICIDAL UTILITY, AND INTERMEDIATES, COMPOSITIONS, AND PROCESSES, RELATED THERETO” (priority 2024, published 2025).

Like-named read-outs stand apart in the source and are kept apart here.

Common to all, as to format: in vivo
The subject of series [1] is Yellow Fever Mosquito (Aedes aegypti, AEDSAE). Conditions: for YFM rating: Table ABC / ABC-DP rating; for YFM % Control (or Mortality) rating: about 1 day-old larvae, 4000 ppm master solution diluted with 90:10 water/acetone, 15 μL per well plus 220 μL larval mixture, 3 days. The essentials: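 Mortality after 3 days at room temperature is the read-out, scored well by well and converted to a rating. Test molecules came from 4000 ppm stocks in DMSO, further diluted in 90:10 water/acetone, and were exposed to roughly 1-day-old larvae suspended in liver-powder water.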

Series [2] deals with Beet Armyworm (Spodoptera exigua, LAPHEG). Briefly: Bioassays on Beet Armyworm (BAW), 128-well diet tray assay. Conditions: Spodoptera exigua; for mortality at 50 µg/cm2: 168 h, second instar larvae, 50 μg/cm^2 of test molecule on artificial diet, 25° C., five to seven days, average of eight wells, read-out: BAW % Control (or Mortality) rating. The method in brief:
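Mortality of second-instar larvae (1–5/well) on artificial diet treated with 50 μg/cm^2 compound, read after 5–7 days at 25° C.; values are means of eight wells.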

For series [3], the system named is Cabbage Looper (Trichoplusia ni, TRIPNI). Briefly: Bioassays on Cabbage Looper (CL), 128-well diet tray assay. Conditions: Trichoplusia ni; for mortality at 50 µg/cm2: 168 h, second instar larvae, 50 μg/cm^2 of test molecule on artificial diet, 25° C., five to seven days, average of eight wells, read-out: CL % Control (or Mortality) rating. The essentials: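 Activity is mean percent mortality over eight wells of second-instar larvae exposed to diet treated at 50 μg/cm^2 for 5–7 days at 25° C.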

Where [4] appears, read: Beet Armyworm, Table ABC / ABC-DP rating, read-out: BAW rating.
[5] abbreviates: Cabbage Looper, Table ABC / ABC-DP rating, read-out: CL rating.
Where [6] appears, read: Yellow Fever Mosquito, rating class.
Where [7] appears, read: Beet Armyworm, rating class, read-out: BAW.
[8] abbreviates: Cabbage Looper, rating class, read-out: CL.
The mark [9] stands for this setting: Table ABC: Biological Results, species YFM.
Where [10] appears, read: Table ABC: Biological Results, species BAW, read-out: BAW.
The mark [11] stands for this setting: Table ABC: Biological Results, species CL, read-out: CL.

In the case of `CCCN(C(=O)C(C)OCC)c1c(F)ccc(NC(=O)c2cc(NC(=O)[C@H]3[C@H](c4ccc(F)c(C(F)(F)F)c4)C3(Cl)Cl)ccc2Cl)c1F` (stereo partly drawn) [F1842, 2-Chloro-5-((1R,3R)-2,2-dichloro-3-(4-fluoro-3-(trifluoromethyl)phenyl)cyclopropane-1-carboxamido)-N-(3-(2-ethoxy-N-propylpropanamido)-2,4-difluorophenyl)benzamide], the YFM rating result in series [1] (Yellow Fever Mosquito) was “A (80–100)”. The pest or weed control at 50 µg/cm2 in series [2] (setting [4]) and in series [3] (setting [5]) was 50 to 100% throughout.

Take `CC(C)C(=O)Nc1c(F)ccc(NC(=O)c2cc(NC(=O)[C@H]3[C@H](c4ccc(Cl)c(Cl)c4)C3(Cl)Cl)ccc2Cl)c1F` [F1606, 2-Chloro-5-((1R,3R)-2,2-dichloro-3-(3,4-dichlorophenyl)cyclopropane-1-carboxamido)-N-(2,4-difluoro-3-isobutyramidophenyl)benzamide]: the YFM entry in series [1] (setting [6]) is “A (80–100)”. For the same compound, the pest or weed control at 50 µg/cm2 in series [2] (setting [7]) and in series [3] (setting [8]) was 50 to 100% each time.

Turning to `O=C(Nc1ccc(F)c(NC(=O)C2CC=CCC2)c1F)c1cc(NC(=O)[C@H]2[C@H](c3ccc(F)c(C(F)(F)F)c3)C2(Cl)Cl)ccc1Cl` (stereo partly drawn) [F1297, 2-Chloro-N-(3-(cyclohex-3-ene-1-carboxamido)-2,4-difluorophenyl)-5-((1R,3R)-2,2-dichloro-3-(4-fluoro-3-(trifluoromethyl)phenyl)cyclopropane-1-carboxamido)benzamide], the YFM result in series [1] (setting [9]) is on record as “A (80–100)”. Further, the pest or weed control at 50 µg/cm2 in series [2] (setting [10]) and in series [3] (setting [11]) was 50 to 100% each time.

As for `Nc1c(F)ccc(NC(=O)c2cc(NC(=O)[C@H]3[C@@H](c4cc(Br)cc(S(F)(F)(F)(F)F)c4)C3(Cl)Cl)ccc2Cl)c1F` (relative stereo) [F1043, cis-N-(3-Amino-2,4-difluorophenyl)-5-(3-(3-bromo-5-(pentafluoro-λ^6-sulfanyl)phenyl)-2,2-dichlorocyclopropane-1-carboxamido)-2-chlorobenzamide], the YFM entry in series [1] (setting [9]) is recorded as “A (80–100)”. Moreover, the pest or weed control at 50 µg/cm2 in series [2] (setting [10]) and in series [3] (setting [11]) was 50 to 100% each time.

For the compound `COc1c(F)cc(NC(=O)[C@H]2[C@H](c3ccc(F)c(Cl)c3)C2(Cl)Cl)cc1C(=O)Nc1ccc(F)cc1` (relative stereo) [F1218, trans-5-(2,2-Dichloro-3-(3-chloro-4-fluorophenyl)cyclopropane-1-carboxamido)-3-fluoro-N-(4-fluorophenyl)-2-methoxybenzamide], in series [1] (setting [9]), the YFM result is reported as “A (80–100)”. Moreover, the pest or weed control at 50 µg/cm2 in series [2] (setting [10]) and in series [3] (setting [11]) was 50 to 100% in each case.

In the case of `O=C(NN=Cc1ccccn1)c1cc(NC(=O)[C@H]2[C@H](c3cc(Cl)cc(Cl)c3)C2(Cl)Cl)ccc1Cl` (relative stereo) [F3002, trans-2,2-Dichloro-N-(4-chloro-3-(2-(pyridin-2-ylmethylene)hydrazine-1-carbonyl)phenyl)-3-(3,5-dichlorophenyl)cyclopropane-1-carboxamide], the YFM rating result in series [1] (Yellow Fever Mosquito) is on record as “A (80–100)”. Also, the “YFM % Control (or Mortality) rating” value in series [1] is on record as “A (80–100)”. For the same compound, the mortality at 50 µg/cm2 in series [2] and in series [3] was 50 to 100% throughout. For the same compound, the pest or weed control at 50 µg/cm2 in series [2] (setting [4]) and in series [3] (setting [5]) was 50 to 100% each time.

On to `O=C(Nc1cc(Cl)c(NC(=O)C(F)(F)F)c(Cl)c1)c1cc(NC(=O)[C@H]2[C@H](c3ccc(F)c(Cl)c3)C2(Cl)Cl)ccc1Cl` (relative stereo) [F1368, trans-2-Chloro-5-(2,2-dichloro-3-(3-chloro-4-fluorophenyl)cyclopropane-1-carboxamido)-N-(3,5-dichloro-4-(2,2,2-trifluoroacetamido)phenyl)benzamide], for which the YFM result in series [1] (setting [9]) is reported as “A (80–100)”. Moreover, the pest or weed control at 50 µg/cm2 in series [2] (setting [10]) and in series [3] (setting [11]) was 50 to 100% throughout.

Regarding `CC(=O)NCCCCNC(=O)c1cc(NC(=O)[C@H]2[C@H](c3cc(Cl)cc(Cl)c3)C2(Cl)Cl)ccc1Cl` (relative stereo) [F2068, trans-N-(4-Acetamidobutyl)-2-chloro-5-(2,2-dichloro-3-(3,5-dichlorophenyl)cyclopropane-1-carboxamido)benzamide], in series [1] (Yellow Fever Mosquito), the YFM rating result is “A (80–100)”. For the same compound, the pest or weed control at 50 µg/cm2 in series [2] (setting [4]) and in series [3] (setting [5]) was 50 to 100% in each case.

Consider `C#CCC(=O)N(CC)c1c(F)ccc(NC(=O)c2cc(NC(=O)[C@H]3[C@H](c4ccc(F)c(C(F)(F)F)c4)C3(Cl)Cl)ccc2Cl)c1F` [F1763], for which, in series [1] (setting [6]), the YFM result is listed as “A (80–100)”. In addition, the pest or weed control at 50 µg/cm2 in series [2] (setting [7]) and in series [3] (setting [8]) was 50 to 100% each time.

With `Cc1cc(N)ccc1NC(=O)c1cc(NC(=O)[C@H]2[C@H](c3ccc(Cl)c(Cl)c3)C2(Cl)Cl)ccc1Cl` (relative stereo) [DP1, trans-N-(4-amino-2-methylphenyl)-2-chloro-5-(2,2-dichloro-3-(3,4-dichlorophenyl)cyclopropane-1-carboxamido)benzamide], the YFM rating entry in series [1] (Yellow Fever Mosquito) is given as “A (80–100)”. The “YFM % Control (or Mortality) rating” value in series [1] is given as “A (80–100)”. In addition, the mortality at 50 µg/cm2 in series [2] and in series [3] was 50 to 100% each time. Also, the pest or weed control at 50 µg/cm2 in series [2] (setting [4]) and in series [3] (setting [5]) was 50 to 100% throughout.

Turning to `O=C(Nc1ccc(F)c(NC(=O)C2CC2(F)F)c1F)c1cc(NC(=O)[C@H]2[C@H](c3ccc(F)c(C(F)(F)F)c3)C2(Cl)Cl)ccc1Cl` (stereo partly drawn) [F1275, 2-Chloro-5-((1R,3R)-2,2-dichloro-3-(4-fluoro-3-(trifluoromethyl)phenyl)cyclopropane-1-carboxamido)-N-(3-(2,2-difluorocyclopropane-1-carboxamido)-2,4-difluorophenyl)benzamide], the YFM result in series [1] (setting [9]) is listed as “A (80–100)”. Besides, the pest or weed control at 50 µg/cm2 in series [2] (setting [10]) and in series [3] (setting [11]) was 50 to 100% in each case.

With `Cc1cc([C@H]2[C@H](C(=O)Nc3ccc(Cl)c(C(=O)NCC(F)(F)F)c3)C2(Cl)Cl)cc(C(F)(F)F)c1F` (relative stereo) [F2014, trans-2-Chloro-5-(2,2-dichloro-3-(4-fluoro-3-methyl-5-(trifluoromethyl)phenyl)-cyclopropane-1-carboxamido)-N-(2,2,2-trifluoroethyl)benzamide], the YFM rating entry in series [1] (Yellow Fever Mosquito) was “A (80–100)”. The pest or weed control at 50 µg/cm2 in series [2] (setting [4]) and in series [3] (setting [5]) was 50 to 100% in each case.

For `O=C(NCCCCNC(=O)C(F)(F)C(F)(F)F)c1cc(NC(=O)[C@H]2[C@H](c3cc(Cl)cc(Cl)c3)C2(Cl)Cl)ccc1Cl` (relative stereo) [F2098, trans-2-Chloro-5-(2,2-dichloro-3-(3,5-dichlorophenyl)cyclopropane-1-carboxamido)-N-(4-(2,2,3,3,3-pentafluoropropanamido)butyl)benzamide], the YFM rating entry in series [1] (Yellow Fever Mosquito) was “B (More than 0 – Less than 80)”. Moreover, the pest or weed control at 50 µg/cm2 in series [2] (setting [4]) and in series [3] (setting [5]) was 50 to 100% throughout.

Regarding `O=C(NCC(F)(F)C(F)(F)F)c1c(F)ccc(NC(=O)[C@H]2[C@H](c3ccc(F)c(Cl)c3)C2(Cl)Cl)c1F` (relative stereo) [F2018, trans-3-(2,2-Dichloro-3-(3-chloro-4-fluorophenyl)cyclopropane-1-carboxamido)-2,6-difluoro-N-(2,2,3,3,3-pentafluoropropyl)benzamide], the YFM rating result in series [1] (Yellow Fever Mosquito) is recorded as “A (80–100)”. Besides, the pest or weed control at 50 µg/cm2 in series [2] (setting [4]) and in series [3] (setting [5]) was 50 to 100% in each case.

Turning to `O=C(Nc1ccc(F)c(NC(=O)C(C(F)(F)F)C(F)(F)F)c1F)c1cc(NC(=O)[C@H]2[C@H](c3ccc(Cl)c(Cl)c3)C2(Cl)Cl)ccc1Cl` [F1607, 2-Chloro-5-((1R,3R)-2,2-dichloro-3-(3,4-dichlorophenyl)cyclopropane-1-carboxamido)-N-(2,4-difluoro-3-(3,3,3-trifluoro-2-(trifluoromethyl)propanamido)phenyl)benzamide], the YFM result in series [1] (setting [6]) was “A (80–100)”. Also, the pest or weed control at 50 µg/cm2 in series [2] (setting [7]) and in series [3] (setting [8]) was 50 to 100% each time.

As to `O=C(Nc1c(F)ccc(NC(=O)C(F)F)c1F)c1cc(NC(=O)[C@H]2[C@H](c3ccc(F)c(C(F)(F)F)c3)C2(Cl)Cl)ccc1F` [F1561, 5-((1R,3R)-2,2-Dichloro-3-(4-fluoro-3-(trifluoromethyl)phenyl)cyclopropane-1-carboxamido)-N-(3-(2,2-difluoroacetamido)-2,6-difluorophenyl)-2-fluorobenzamide], the YFM result in series [1] (setting [6]) is given as “A (80–100)”. Besides, the pest or weed control at 50 µg/cm2 in series [2] (setting [7]) and in series [3] (setting [8]) was 50 to 100% each time.

One may read the mortality as the share of the test organisms that died.
